# Measured values: patent US20090069408A1, “TRICYCLIC COMPOUNDS USEFUL IN TREATING IRON DISORDERS” (XENON PHARMACEUTICALS INC., priority 2007, published 2009)
# Where a name gives a salt, the structure may show the parent alone.
row,Structure (SMILES),melting point
1,"Cc1c2cccc(CSC(=N)N)c2nc2c(CSC(=N)N)cccc12 (as salt: hydrobromid) [Example 1.17, (9-methylacridine-4,5-diyl)bis(methylene) dicarbamimidothioate dihydrobromide]",> 270 °C (dec.)
2,"N=C(N)SCc1cc(Br)cc2c1oc1c(CSC(=N)N)cc(Br)cc12 (as salt: hydrobromid) [Example 1.7, (2,8-dibromodibenzo[b,d]furan-4,6-diyl)bis(methylene) dicarbamimidothioate dihydrobromide]",> 220 °C
3,"N=C(N)SCc1cccc2c1sc1c(CSC(=N)N)cc(F)cc12 (as salt: hydrobromid) [Example 1.10, (2-fluorodibenzo[b,d]thiophene-4,6-diyl)bis(methylene) dicarbamimidothioate dihydrobromide]",> 230 °C
4,"N=C(N)SCc1cccc2c1Oc1c(CSC(=N)N)cccc1S2 (as salt: hydrobromid) [Example 1.12, phenoxathiine-4,6-diylbis(methylene) dicarbamimidothioate dihydrobromide]",> 230 °C
5,"N=C(N)SCc1cccc2c(=O)c3cccc(CSC(=N)N)c3oc12 (as salt: hydrobromid) [Example 1.16, (9-oxo-9H-xanthene-4,5-diyl)bis(methylene) dicarbamimidothioate dihydrobromide]",> 230 °C
